Assay results published in patent publication US20150329558A1, “FUSED HETEROCYCLIC COMPOUNDS AS ION CHANNEL MODULATORS” (Gilead Sciences, Inc., priority 2011, published 2015).

Tests used:
[1] = Microsomal stability assay, dog; assay type: in vitro ADME; settings: metabolic stability, dog liver microsomes 0.5 mg/mL, substrate 3 uM
In short: (§1)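 Liver microsomes at 0.5 mg/mL protein in 100 mM KPO4 buffer, incubated with 3 uM compound and NADPH-regenerating system, run in duplicate. Samples taken at 2, 12, 25, 45 and 65 min and quenched in MeOH/ACN/water before analysis.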

[2] = Microsomal stability assay, human; assay type: in vitro ADME; settings: metabolic stability, human liver microsomes 0.5 mg/mL, substrate 3 uM
In short: as §1

hNav1.1 = molecular target: T1, hNav1.1 (Homo sapiens, UniProt P35498); assay: Nav1.1 use-dependent block, whole-cell voltage clamp; assay type: cell-based; settings: use-dependent block 10 Hz, read-out: NAv1.1*-CHAN TEST-UDB-10 HZ-
T1 construct: expressed in transfected cells; host or cells: HEK293, transient transfection (α1:β1:β2 = 10:1:1)

Human Nav1.2 = molecular target: T2, Human Nav1.2 (Homo sapiens, UniProt Q99250); assay: Nav1.2 use-dependent block, whole-cell voltage clamp; assay type: cell-based; settings: use-dependent block 10 Hz, read-out: NAv1.2*-CHAN TEST-UDB-10 HZ-
T2 construct: expressed in transfected cells
Text: Wild-type (WT) cDNA stably transfected in Chinese hamster ovary (CHO) cells is used to record INa. Unless otherwise noted, all reagents are purchased from Sigma-Aldrich (St Louis, Mo., U.S.A.).
Whole-cell voltage-clamp recordings are used to measure the biophysical properties of WT. Briefly, the pipette solution consists of (in mM) 110 CsF, 10 NaF, 20 CsCl, 2 EGTA, 10 HEPES, with a pH of 7.35 and osmolarity of 300 mOsmol/kg. The bath (control) solution contains in (mM): 145 NaCl, 4 KCl, 1.8 CaCl2, 1 MgCl2, 10 dextrose, 10 HEPES, with a pH of 7.35 and osmolarity of 310 mOsmol/kg. Cells are allowed to stabilize for 10 min after establishment of the whole-cell configuration before current is measured. Series resistance is compensated 90% to assure that the command potential is reached within microseconds with a voltage error <2 mV. Leak currents are subtracted by using an online P/4 procedure and all currents are low-pass Bessel filtered at 5 kHz and digitized at 50 kHz.
Tonic block of peak current is measured using a step to −10 mV (20 ms) from a holding potential of −120 mV (0.2 Hz). Use-dependent block of peak current is measured during pulse number 300 of a pulse train (−10 mV, 5 ms, 300 pulses, 10 Hz or 25 Hz) from a holding potential of −120 mV. Two sequential pulse train stimulations are averaged to obtain mean current traces for each recording condition, which are then used for offline subtraction and analysis.
For use-dependent studies, cells are stimulated with depolarizing pulse trains (−10 mV, 5 ms, 300 pulses, 10 and 25 Hz) from a holding potential of −120 mV. Currents are then normalized to the peak current recorded in response to the first pulse in each frequency train. For tonic block studies, peak current is evaluated in response to a 20 ms depolarization to −10 mV (0.2 Hz). Data analysis is performed using Clampfit 9.2 (Axon Instruments, Union City, Calif., U.S.A), Excel 2002 (Microsoft, Seattle, Wash., U.S.A.), and OriginPro 7.0 (OriginLab, Northampton, Mass., U.S.A) software. Results are presented as mean±SEM.
A stock solution of 10 mM compound of Formula I is prepared in 0.1 M HCl or DMSO. A fresh dilution of the compound of Formula I in the bath solution is prepared every experimental day and the pH is readjusted to 7.35 as necessary. The final DMSO concentration was kept at 0.1% in all solutions. Direct application of the perfusion solution to the clamped cell is achieved using the Perfusion Pencil system (Automate, Berkeley, Calif.). Direct cell perfusion is driven by gravity at a flow rate of 350 μL/min using a 250 micron tip. This system sequesters the clamped cell within a perfusion stream and enables complete solution exchange within 1 second. The clamped cell is perfused continuously starting immediately after establishing the whole-cell configuration. Control currents are measured during control solution perfusion.
Solutions are perfused for three minutes prior to current recordings to allow equilibrium (tonic) drug block. Tonic block of peak currents is measured from this steady-state condition. Three sequential current traces are averaged to obtain a mean current for each recording. The mean current traces are utilized for offline analysis. Use-dependent block of peak current is measured during pulse number 300 of the pulse train, (−10 mV, 5 ms, 300 pulses, 10 Hz) from a holding potential of −120 mV. Two sequential pulse train stimulations are averaged to obtain mean current traces for each recording condition, which are then used for offline subtraction and analysis. Where appropriate, concentration inhibition curves are fit with the Hill equation: I/Imax=1/[1+10̂(log IC50−I)*k], where IC50 is the concentration that produces half inhibition and k is the Hill slope factor.

T2 sequence (Q99250 whole entry): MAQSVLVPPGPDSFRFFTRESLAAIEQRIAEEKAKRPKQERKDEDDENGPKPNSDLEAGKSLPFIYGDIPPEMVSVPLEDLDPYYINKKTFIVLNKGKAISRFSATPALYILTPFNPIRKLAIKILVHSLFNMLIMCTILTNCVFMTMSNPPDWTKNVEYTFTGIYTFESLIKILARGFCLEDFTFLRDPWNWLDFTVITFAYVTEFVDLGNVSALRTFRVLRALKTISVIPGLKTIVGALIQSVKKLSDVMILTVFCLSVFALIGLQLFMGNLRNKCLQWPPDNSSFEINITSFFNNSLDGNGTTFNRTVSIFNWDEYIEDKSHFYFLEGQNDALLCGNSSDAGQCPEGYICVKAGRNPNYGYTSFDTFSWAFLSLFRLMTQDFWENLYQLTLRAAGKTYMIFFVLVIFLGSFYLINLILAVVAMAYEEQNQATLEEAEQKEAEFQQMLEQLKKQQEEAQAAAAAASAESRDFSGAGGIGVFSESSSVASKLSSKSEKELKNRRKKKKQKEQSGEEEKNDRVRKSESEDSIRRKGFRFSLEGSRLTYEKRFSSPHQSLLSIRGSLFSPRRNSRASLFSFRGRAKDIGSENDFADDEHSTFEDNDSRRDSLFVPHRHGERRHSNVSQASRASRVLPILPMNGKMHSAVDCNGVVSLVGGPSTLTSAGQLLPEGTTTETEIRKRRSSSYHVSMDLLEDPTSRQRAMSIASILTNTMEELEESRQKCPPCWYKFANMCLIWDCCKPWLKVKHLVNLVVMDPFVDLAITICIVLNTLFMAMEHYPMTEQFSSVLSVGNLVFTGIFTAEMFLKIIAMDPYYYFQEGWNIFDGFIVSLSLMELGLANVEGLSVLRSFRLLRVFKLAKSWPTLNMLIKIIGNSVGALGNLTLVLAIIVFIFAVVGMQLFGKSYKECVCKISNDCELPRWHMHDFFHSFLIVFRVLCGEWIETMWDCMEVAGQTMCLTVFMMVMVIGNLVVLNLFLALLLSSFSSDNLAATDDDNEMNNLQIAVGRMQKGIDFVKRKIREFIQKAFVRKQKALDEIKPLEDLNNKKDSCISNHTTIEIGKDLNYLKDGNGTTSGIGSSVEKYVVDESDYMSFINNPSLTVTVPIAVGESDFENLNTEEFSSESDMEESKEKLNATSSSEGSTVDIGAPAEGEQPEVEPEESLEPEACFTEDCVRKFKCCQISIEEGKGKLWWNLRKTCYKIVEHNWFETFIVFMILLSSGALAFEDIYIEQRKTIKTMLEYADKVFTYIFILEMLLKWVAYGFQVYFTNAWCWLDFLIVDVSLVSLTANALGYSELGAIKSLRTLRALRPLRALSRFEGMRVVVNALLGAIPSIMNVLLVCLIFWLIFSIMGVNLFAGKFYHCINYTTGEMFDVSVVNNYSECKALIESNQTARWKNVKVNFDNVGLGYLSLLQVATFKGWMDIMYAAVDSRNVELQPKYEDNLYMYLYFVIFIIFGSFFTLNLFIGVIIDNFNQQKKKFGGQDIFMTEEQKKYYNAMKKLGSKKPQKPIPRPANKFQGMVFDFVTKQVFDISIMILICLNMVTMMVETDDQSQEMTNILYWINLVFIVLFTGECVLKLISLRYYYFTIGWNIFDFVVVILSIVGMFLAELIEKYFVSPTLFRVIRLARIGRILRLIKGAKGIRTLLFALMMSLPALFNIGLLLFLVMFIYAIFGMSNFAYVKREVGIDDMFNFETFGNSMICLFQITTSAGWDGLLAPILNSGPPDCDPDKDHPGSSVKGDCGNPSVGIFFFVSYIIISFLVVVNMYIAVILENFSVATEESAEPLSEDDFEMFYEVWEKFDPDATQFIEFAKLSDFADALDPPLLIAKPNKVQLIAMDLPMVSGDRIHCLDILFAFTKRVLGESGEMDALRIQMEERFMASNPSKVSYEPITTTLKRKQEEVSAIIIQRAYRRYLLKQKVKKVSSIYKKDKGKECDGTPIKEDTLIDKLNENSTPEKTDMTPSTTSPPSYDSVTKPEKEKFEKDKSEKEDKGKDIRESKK

| Structure (SMILES) | MS Dog THalf [1] | MS Human THalf [2] | inhibition at 1 µM (hNav1.1) | inhibition at 1 µM (Human Nav1.2) |
| --- | --- | --- | --- | --- |
| O=C1c2cc(-c3ccc(C(F)(F)F)cc3)ccc2OCN1Cc1ccccn1 [VIII-1, 3-(pyridin-2-ylmethyl)-6-(4-(trifluoromethyl)phenyl)-2H-benzo[e][1,3]oxazin-4(3H)-one] | 210 min | 125 min | 4.4% | 16% |
| O=c1c2cc(-c3ccc(OC(F)(F)F)cc3)ccc2nnn1C1CCNCC1 [II-38, 3-(piperidin-4-yl)-6-(4-(trifluoromethoxy)phenyl)benzo[d][1,2,3]triazin-4(3H)-one] | 68 min | > 395 min | -1% | 8% |
| CC1Oc2ccc(-c3ccc(OC(F)(F)F)cc3)cc2C(=O)N1Cc1ncccn1 (stereo not drawn) [VIII-7, 2-methyl-3-(pyrimidin-2-ylmethyl)-6-(4-(trifluoromethoxy)phenyl)-2H-benzo[e][1,3]oxazin-4(3H)-one] | 392 min | 221 min | 12.1% | 18.2% |
| O=c1c2cc(-c3ccc(OC(F)(F)F)cc3)ccc2nnn1CC1(CN2CCOCC2)CC1 [II-40, 3-((1-(morpholinomethyl)cyclopropyl)methyl)-6-(4-(trifluoromethoxy)phenyl)benzo[d][1,2,3]triazin-4(3H)-one] | 2 min | 2 min |  |  |
| O=C(c1cccnn1)N1CCc2ccc(-c3ccc(C(F)(F)F)cc3)cc2C1 [IX-17, Pyridazin-3-yl(7-(4-(trifluoromethyl)phenyl)-3,4-dihydroisoquinolin-2 (1H)-yl) methanone] | > 395 min | 257 min | 1.5% | 10.4% |
| Cc1noc(Cn2nnc3ccc(-c4ccc(OC(F)(F)F)cc4)cc3c2=O)n1 [II-3, 3-((3-methyl-1,2,4-oxadiazol-5-yl)methyl)-6-(4-(trifluoromethoxy)phenyl)benzo[d][1,2,3]triazin-4(3H)-one] | 303 min | 336 min | -6% | -3.2% |
| O=c1c2cc(-c3ccc(OC(F)(F)F)cc3)ccc2nnn1Cc1noc(C2CC2)n1 [II-14, 3-((5-cyclopropyl-1,2,4-oxadiazol-3-yl)methyl)-6-(4-(trifluoromethoxy)phenyl)benzo[d][1,2,3]triazin-4(3H)-one] | 284 min | 236 min | 19.5% | -0.7% |
| O=c1c2cc(-c3ccc(OC(F)(F)F)cc3)ccc2nnn1Cc1noc(-c2ccccn2)n1 [II-54, 3-((5-(pyridin-2-yl)-1,2,4-oxadiazol-3-yl)methyl)-6-(4-(trifluoromethoxy)phenyl)benzo[d][1,2,3]triazin-4(3H)-one] | 28 min | 329 min |  |  |
| O=C1c2cc(-c3ccc(OC(F)(F)F)cc3)ccc2OCN1Cc1ccccn1 [VIII-3, 3-(pyridin-2-ylmethyl)-6-(4-(trifluoromethoxy)phenyl)-2H-benzo[e][1,3]oxazin-4(3H)-one] | 164 min | 285 min | 3.1% | 11.7% |
| Cn1cnc(C(=O)N2CCc3ccc(-c4ccc(C(F)(F)F)cc4)cc3C2)c1 [IX-39, (1-methyl-1H-imidazol-4-yl)(7-(4-(trifluoromethyl)phenyl)-3,4-dihydroisoquinolin-2(1H)-yl)methanone] | 256 min | > 395 min | 1.5% | 16.8% |
| O=C(c1ncccn1)N1CCc2ccc(-c3ccc(C(F)(F)F)cc3)cc2C1 [IX-7, pyrimidin-2-yl(7-(4-(trifluoromethyl)phenyl)-3,4-dihydroisoquinolin-2(1H)-yl)methanone] | > 395 min | > 395 min | 2.02% | 8.62% |
| O=c1c2cc(-c3ccc(OC(F)(F)F)cc3)ccc2nnn1Cc1nnc(C2CC2)o1 [II-67, 3-((5-cyclopropyl-1,3,4-oxadiazol-2-yl)methyl)-6-(4-(trifluoromethoxy)phenyl)benzo[d][1,2,3]triazin-4(3H)-one] | 270 min | > 395 min |  |  |
| Cc1nc(Cn2cnc3ccc(-c4ccc(OC(F)(F)F)cc4)cc3c2=O)no1 [IV-9, 3-((5-methyl-1,2,4-oxadiazol-3-yl)methyl)-6-(4-(trifluoromethoxy)phenyl)quinazolin-4(3H)-one] | 356 min | > 395 min | -6.5% | 8% |
| O=c1c2cc(-c3ccc(OC(F)(F)F)cc3)ccc2cnn1CCOc1ncccn1 [III-28, 2-(2-(pyrimidin-2-yloxy)ethyl)-7-(4-(trifluoromethoxy)phenyl)phthalazin-1 (2H)-one] | 51 min | 170 min | 40.5% | 28.8% |
| O=C1c2cc(-c3ccc(OC(F)(F)F)cc3)ccc2CCN1Cc1ncccn1 [IX-1, 2-(pyrimidin-2-ylmethyl)-7-(4-(trifluoromethoxy)phenyl)-3,4-dihydroisoquinolin-1(2H)-one] | 157 min | > 395 min | -5.9% | 3.8% |
| O=C1c2cc(-c3ccc(C(F)(F)F)cc3)ccc2CCN1Cc1ncccn1 [IX-3, 2-(pyrimidin-2-ylmethyl)-7-(4-(trifluoromethyl)phenyl)-3,4-dihydroisoquinolin-1(2H)-one] | 320 min | 304 min | 2.9% | -4.1% |
| O=c1c2cc(-c3ccc(OC(F)(F)F)cc3)ccc2nnn1CCc1ncccn1 [II-18, 3-(2-(pyrimidin-2-yl)ethyl)-6-(4-(trifluoromethoxy)phenyl)benzo[d][1,2,3]triazin-4(3H)-one] | 74 min | 130 min |  |  |
| COc1cc(OC)nc(Cn2ncc3ccc(-c4ccc(OC(F)(F)F)cc4)cc3c2=O)n1 [III-19, 2-((4,6-dimethoxypyrimidin-2-yl)methyl)-7-(4-(trifluoromethoxy)phenyl)phthalazin-1 (2H)-one] | 129 min | 130 min | 19.3% | -6% |
| Cc1noc(Cn2cnc3ccc(-c4ccc(OC(F)(F)F)cc4)cc3c2=O)n1 [IV-6, 3-((3-methyl-1,2,4-oxadiazol-5-yl)methyl)-6-(4-(trifluoromethoxy)phenyl)quinazolin-4(3H)-one] | 158 min | 280 min | 3.1% | 7.1% |
| O=c1c2cc(-c3ccc(OC(F)(F)F)cc3)ccc2nnn1CCc1ccncn1 [II-17, 3-(2-(pyrimidin-4-yl)ethyl)-6-(4-(trifluoromethoxy)phenyl)benzo[d][1,2,3]triazin-4(3H)-one] | 50 min | 101 min |  |  |
| O=C1c2cc(-c3ccc(OC(F)(F)F)cc3)ccc2OCN1Cc1ncccn1 [VIII-20, 3-(pyrimidin-2-ylmethyl)-6-(4-(trifluoromethoxy)phenyl)-2H-benzo[e][1,3]oxazin-4(3H)-one] |  |  | 11% | 17.6% |
